Patent publication US20200164005A1, “PHARMACEUTICAL COMPOSITIONS OF A BILE ACID DERIVATIVE AND MICROBIOME AND USES THEREOF” (Intercept Pharmaceuticals, Inc., priority 2017, published 2020)

Columns and labels:
[1] = tested on: Lactococcus lactis, Streptococcus thermophilus, and Lactobacillus casei/paracasei; test: Minimal inhibitory concentrations (MIC) of bile acids and OCA, aerobic and anaerobic; assay type: cell-based
Text: FIGS. 58A-58B: Minimal inhibitory concentrations (MICs) of selected Gram-positive bacterial species in response treatment with two endogenous bile acids and OCA. […] N=3 per measurement. […] N=3 per measurement.
a (Begley et al., FEMS Microbiol Rev. 29, 625-651 (2005)), and conducted genomic analysis is consistent with the notion that specific Gram-positive taxa become proportionally more abundant during OCA administration due to enhanced proliferation. FXR-dependent inhibition of endogenous bile acid synthesis by OCA may reduce the growth inhibitory effects on Gram-positive bacterial species that are normally sensitive to bile acids. To determine if the three bacterial species with the greatest representation of pathways associated with OCA (FIG. 57A) are sensitive to bile acids, the species-specific minimal inhibitory concentrations (MIC) of the two most predominant bile acids in the human small intestine, glycochenodeoxycholic acid (GCDCA) and glycocholic acid (GCA) were determined (FIG. 58A). Since the environment of the small intestinal lumen may transition from an aerobic to anaerobic state along its length (He et al., Proceedings of the National Academy of Sciences of the United States of America, 96, 4586-4591 (1999)), MICs were determined under both aerobic and anaerobic conditions. […] Consistent with this notion, it has been shown that bile salt hydrolases (BSH), enzymes that are unique to bacteria resident in the mammalian gut where they can enhance bile acid tolerance (Begley et al., FEMS Microbiol Rev. 29, 625-651 (2005)), are missing from the genome of S. thermophilus, which is induced by OCA. It can be supported by showing that these species are sensitive to growth inhibition in vitro when exposed to physiologically-relevant concentrations of conjugated bile acids found in the small intestine. […] Since OCA is a bile acid analogue possibly capable of inhibiting bacterial growth, the MICs of OCA for the same bacterial species were determined (FIG. 58B). […] These findings support the notion that OCA treatment leads to the increased growth of bile acid sensitive bacterial taxa by suppressing endogenous bile acid synthesis.

endogenous bile acids = test: Luminal bile acid concentrations in small intestine and feces of OCA-treated mice; assay type: in vivo
Procedure: FIG. 54: Bar graphs showing the concentration of taurocholic acid and taurodeoxycholic acid at proximal small bowel and distal small bowel, or in feces, in samples collected from mice treated with control (methylcellulose) or OCA (10 mg/kg/day) for 14 days, followed by no treatment for additional 14 days. Statistically significant differences based on two-tailed Student t-tests are noted: p<0.05 (*) and p<0.01 (**).
FIGS. 59A-59E: Effect of OCA administration on luminal bile acid concentrations in the murine small intestine and feces. […] Mean+SE, *p<0.05, **p<0.01, ***p<0.001. FIGS. 59D-59E show heatmaps of luminal bile acid concentrations in the proximal (FIG. 59D) and distal (FIG. 59E) small intestine.
For example, Streptococci represent as much as 20% of the human small intestinal microbiota by 16S tagged sequencing (Dlugosz et al., Sci Rep-Uk, 5 (2015)); El Aidy et al., Curr Opin Biotechnol., 32, 14-20 (2015)). Some of these bacteria are environmental organisms used in the manufacturing of food introduced into the small intestine with diet, including Streptococcus thermophilus, Bifidobacterium breve, Lactobacillus casei, and Lactococcus lactis (Brigidi et al., International Journal of Food Microbiology, 81, 203-209 (2003); Derrien and van Hylckama Vlieg, Trends Microbiol., 23, 354-366 (2015); Stiles and Holzapfel, International Journal of Food Microbiology, 36, 1-29 (1997)). To determine whether OCA treatment can alter the gut microbiota composition specifically in the small intestine, mice were treated with OCA for 14 days, the microbiota composition in the proximal and distal small intestine, as well as the stool, and quantified bile acids were characterized. Since OCA was prepared in methylcellulose, an additional methylcellulose control group was included due to its previously described effect on fecal bile acid levels (Cox et al., FASEB J 27, 692-702 (2013)).

## CC[C@H]1[C@@H](O)[C@@H]2[C@H](CC[C@]3(C)[C@@H]([C@H](C)CCC(=O)O)CC[C@@H]23)[C@@]2(C)CC[C@@H](O)C[C@@H]12 [OCA, 3α,7α-dihydroxy-6α-ethyl-5β-cholan-24-oic acid]
[1]
  inhibition of growth of the three bacterial species (MIC determination): able to inhibit growth of all three bacterial species
[1]; ˜40 mM at a 10 mg/day dose
  inhibition of growth at OCA concentrations calculated to be reached in the human small intestine: minimal to no inhibition of growth
Endogenous bile acids; 10 mg/kg OCA, 14 days
  OCA in the small intestinal lumen of treated mice: detectable
  contribution of OCA to the total concentration of bile acids in the small intestinal lumen: contributed minimally
  luminal endogenous primary bile acids in the feces: no effect
Endogenous bile acids; 10 mg/kg OCA, 14 days, greatest in proximal small intestine
  luminal endogenous primary bile acids in proximal and distal small intestine: significant reduction
Endogenous bile acids; 10 mg/kg OCA, 14 days, small intestine
  luminal cholic and taurocholic acids: largest consistent decreases
Endogenous bile acids; OCA 10 mg/kg/day, day 14
  levels of taurocholic and taurodeoxycholic acids in proximal and distal small intestine: reduction
  levels of taurocholic and taurodeoxycholic acids in the colon (feces): not in the colon (feces)
Endogenous bile acids; day 28, two weeks after cessation of OCA
  levels of taurocholic and taurodeoxycholic acids in the proximal small intestine after cessation: continued reduction
